Legend:
RARs = test: Co-transfection assay, RARs taken together; format: cell-based; settings: Table 1
Description: (§1) Utilizing the "cis-trans" or "co-transfection" assay described by Evans et al., Science, 240:889-95 (May 13, 1988), the disclosure of which is herein incorporated by reference, the retinoid compounds of the present invention were tested and found to have strong, specific activity as either selective RAR agonists, selective RXR agonists, or as pan-agonist activators of both RAR and RXR receptors. This assay is described in further detail in U.S. Pat. Nos. 4,981,784 and 5,071,773, the disclosures of which are incorporated herein by reference.
(§2) The co-transfection assay provides a method for identifying functional agonists which mimic, or antagonists which inhibit, the effect of native hormones, and quantifying their activity for responsive IR proteins. In this regard, the co-transfection assay mimics an in vivo system in the laboratory. Importantly, activity in the co-transfection assay correlates very well with known in vivo activity, such that the co-transfection assay functions as a qualitative and quantitative predictor of a tested compounds Ln vivo pharmacology. See, e.g., T. Berger et al. 41 J. Steroid Biochem. Molec. Biol. 733 (1992), the disclosure of which is herein incorporated by reference.
(§3) In the co-transfection assay, a cloned cDNA for an IR (e.g., human RARα, RARβ, RXRγ) under the control of a constitutive promoter (e.g., the SV 40 promoter) is introduced by transfection (a procedure to induce cells to take up foreign genes) into a background cell substantially devoid of endogenous IRs. This introduced gene directs the recipient cells to make the IR protein of interest. A second gene is also introduced (co-transfected) into the same cells in conjunction with the IR gene. This second gene, comprising the cDNA for a reporter protein, such as firefly luciferase (LUC), controlled by an appropriate hormone responsive promoter containing a hormone response element (HRE). This reporter plasmid functions as a reporter for the transcription-modulating activity of the target IR. Thus, the reporter acts as a surrogate for the products (mRNA then protein) normally expressed by a gene under control of the target receptor and its native hormone.
The co-transfection assay can detect small molecule agonists or antagonists of target IRs. Exposing the transfected cells to an agonist ligand compound increases reporter activity in the transfected cells. This activity can be conveniently measured, e.g., by increasing luciferase production, which reflects compound-dependent, IR-mediated increases in reporter transcription. […] . Increasing concentrations of a suspected antagonist will decrease the reporter signal (e.g., luciferase production). The co-transfection assay is therefore useful to detect both agonists and antagonists of specific IRs. […]

RAR and RXR receptors = test: Co-transfection assay, RARs and RXRs taken together; format: cell-based
Description: as §1, §2, §3
The co-transfection assay can detect small molecule agonists or antagonists of target IRs. Exposing the transfected cells to an agonist ligand compound increases reporter activity in the transfected cells. This activity can be conveniently measured, e.g., by increasing luciferase production, which reflects compound-dependent, IR-mediated increases in reporter transcription. […] . Increasing concentrations of a suspected antagonist will decrease the reporter signal (e.g., luciferase production). The co-transfection assay is therefore useful to detect both agonists and antagonists of specific IRs. Furthermore, it determines not only whether a compound interacts with a particular IR, but whether this interaction mimics (agonizes) or blocks (antagonizes) the effects of the native regulatory molecules on target gene expression, as well as the specificity and strength of this interaction.
To determine RAR and/or RXR agonist activity of the compounds of the present invention, the CV-1 cells were transiently transfected by calcium phosphate coprecipitation according to the procedure of Berger et al., 41 J.Steroid Biochem. Mol. Biol., 733 (1992) with the following receptor expressing plasmids: pRShRARα: Giguere et al., 330 Nature, 624 (1987); pRShRARβ and pRShRARγ, Ishikawa et al., 4 Mol. Endocrin., 837 (1990); pRShRXRα, Mangelsdorf et al., 345 Nature, 224 (1990); and pRSmRXRβ and pRSmRXRγ, Mangelsdorf et al., 6 Genes & Devel., 329 (1992), the disclosures of which are herein incorporated by reference.

AML-193 cell line = test: Incorporation of 3H-thymidine, AML-193; settings: 96 h, read-out: TdR IC50
TPA induction of ODC = settings: literature; cited from earlier work

Row | SMILES | RAR activity in words (RARs) | selectivity / potency profile on RARs and RXRs in words (RAR and RXR receptors) | IC50 (AML-193 cell line) [nM] | effect on ODC activity, in words (TPA induction of ODC)
1 | CC(/C=C/C=C1/CCOc2cc3c(cc21)C(C)(C)CCC3(C)C)=C\C(=O)O [Compound 144b] | extremely potent RAR active | superior potency profiles to that of the known RXR active pan-agonist compound 9-cis retinoic acid | – | –
2 | C/C(=C\c1ccc(C(=O)O)cc1)c1ccc2c(c1)C(C)(C)CCC2(C)C [TTNPB, (E)-4-[2-(5,6,7,8-tetrahydro-5,5,8,8-tetramethyl-2-napthalenyl)-1-propenyl]benzoic acid] | – | – | 0.1 | –
3 | CC(/C=C/C=C1/CC(C)(C)Oc2cc3c(cc21)C(C)(C)CCC3(C)C)=C\C(=O)O [Compound 104b, (2E,4E)-3-Methyl-6-(2,3,6,7,8,9-hexahydro-2,2,6,6,9,9-hexamethylbenzo[b]-chromen-4-ylidene)-hexa-2,4-dienoic acid] | – | potent and selective RXR compound | – | –
4 | CC(/C=C/CC1CCCc2cc3c(cc21)C(C)(C)CCC3(C)C)=C\C(=O)O (racemic) [Compound 124b, (2E,4E)-3-Methyl-6-(1,2,3,4,5,6,7,8-octahydro-5,5,8,8-tetramethylanthracen-1-yl)hexa-2,4-dienoic acid] | – | superior potency profiles to that of the known RXR active pan-agonist compound 9-cis retinoic acid | – | –
5 | CC(/C=C/C=C1/CCCc2cc3c(cc21)C(C)(C)CCC3(C)C)=C\C(=O)O [Compound 101b, (2E,4E)-3-Methyl-6-[(Z)-3,4,5,6,7,8-hexahydro-5,5,8,8-tetramethyl-2H-anthracen-1-ylidene]hexa-2,4-dienoic acid] | extremely potent RAR active | superior potency profiles to that of the known RXR active pan-agonist compound 9-cis retinoic acid | – | –
6 | CC(/C=C/C=C1\CCCc2cc3c(cc21)C(C)(C)CCC3(C)C)=C\C(=O)O [Compound 109b, (2E,4E)-3-Methyl-6-[(E)-3,4,5,6,7,8-hexahydro-5,5,8,8-tetramethyl-2H-anthracen-1-ylidene]hexa-2,4-dienoic acid] | extremely potent RAR active | RAR selective | – | –
7 | CC1=C(/C=C/C(C)=C/C=C/C(C)=C/C(=O)O)C(C)(C)CCC1 [retinoic acid] | – | – | – | inhibits this induction of ODC by TPA
8 | CCCCCCCCCCCCCC(=O)O[C@@H]1[C@@H](C)[C@@]2(O)[C@@H](C=C(CO)C[C@]3(O)C(=O)C(C)=C[C@@H]23)[C@@H]2C(C)(C)[C@]12OC(C)=O [TPA, 12-0-tetradecanoylphorbor-13-acetate] | – | – | – | induces ODC activity
9 | CC(/C=C/C=C1\CCOc2cc3c(cc21)C(C)(C)CCC3(C)C)=C\C(=O)O [Compound 119b, (2E,4E)-3-Methyl-6-[(E)-2,3,6,7,8,9-hexahydro-6,6,9,9-tetramethyl-benzo[g]chromen-4-ylidene]hexa-2,4-dienoic acid] | extremely potent RAR active | RAR selective | – | –

— patent publication US5770383A, “Tricyclic retinoids, methods for their production and use” (Ligand Pharmaceuticals, Inc., priority 1995, dated 1998)
